We go through 13 compounds from ChEMBL document CHEMBL4828776, “Acremopeptaibols A-F, 16-Residue Peptaibols from the Sponge-Derived Acremonium sp. IMB18-086 Cultivated with Heat-Killed Pseudomonas aeruginosa” (J Nat Prod, 2021).

Assay [1] relates to Candida albicans. Put plainly: Antifungal activity against Candida albicans ATCC 10231 assessed as inhibition of fungal growth incubated for 16 hrs by microdilution method. The class given is functional. A general note: In broth dilution the organism is exposed to a series of concentrations in liquid medium.
Assay [2] deals with A549. Kind of assay: Cytotoxicity against human A549 cells assessed as reduction in cell viability incubated for 48 hrs by CCK8 assay. The settings on record: A549, 48 h. The format is functional, cell-based. On the technique in general: Tetrazolium assays rely on reduction of a dye to a coloured formazan, in cell work by metabolically active cells.
Assay [3] relates to HepG2. Kind of assay: Cytotoxicity against human HepG2 cells assessed as reduction in cell viability incubated for 48 hrs by CCK8 assay. The class given is functional, cell-based. The settings on record: HepG2, 48 h.
For assay [4], the system named is Pseudomonas aeruginosa. Kind of assay: Antibacterial activity against Pseudomonas aeruginosa ATCC 27853 assessed as inhibition of bacterial growth incubated for 16 hrs by microdilution method. The format is functional.
Assay [5] relates to Staphylococcus epidermidis. Kind of assay: Antibacterial activity against Staphylococcus epidermidis ATCC 12228 assessed as inhibition of bacterial growth incubated for 16 hrs by microdilution method. The format is functional.
Assay [6] concerns Escherichia coli. Put plainly: Antibacterial activity against Escherichia coli ATCC 25922 assessed as inhibition of bacterial growth incubated for 16 hrs by microdilution method. The format is functional.
The test system of assay [7] is Staphylococcus aureus. Kind of assay: Antibacterial activity against methicillin-resistant Staphylococcus aureus ATCC 33591 assessed as inhibition of bacterial growth incubated for 16 hrs by microdilution method. The format is functional.
Assay [8] has as its system Staphylococcus aureus. Kind of assay: Antibacterial activity against Staphylococcus aureus ATCC 25923 assessed as inhibition of bacterial growth incubated for 16 hrs by microdilution method. The class given is functional.
Assay [9] concerns Staphylococcus aureus. Kind of assay: Antibacterial activity against Staphylococcus aureus ATCC 29213 assessed as inhibition of bacterial growth incubated for 16 hrs by microdilution method. The class given is functional.
In assay [10] the test system is Enterococcus faecalis. Kind of assay: Antibacterial activity against vancomycin-resistant Enterococcus faecalis 21-07 assessed as inhibition of bacterial growth incubated for 16 hrs by microdilution method. The class given is functional.
Assay [11] deals with Bacillus subtilis. Kind of assay: Antibacterial activity against Bacillus subtilis ATCC 6633 assessed as inhibition of bacterial growth incubated for 16 hrs by microdilution method. The format is functional.

≈ marks a conversion by molar mass, not a printed value. Non-standard residues stand in square brackets, D forms with d. Residues, ends and D or L forms follow the SMILES beside them. Hyp = O=C(O)[C@@H]1C[C@@H](O)CN1; Phe(ol) = N[C@H](CO)Cc1ccccc1; Aib = CC(C)(N)C(=O)O

Broadly, the MIC is the smallest concentration in the dilution series that meets the test's criterion for growth inhibition. Usually IC50 stands for the point on the concentration scale where inhibition reaches its midpoint. Regarding `CC(=O)N[C@@H](Cc1c[nH]c2ccccc12)C(=O)NC(C)(C)C(=O)N[C@@H](CCC(N)=O)C(=O)NC(C)(C)C(=O)NCC(=O)NC(C)(C)C(=O)N[C@@H](C)C(=O)NC(C)(C)C(=O)NC(C)(C)C(=O)NCC(=O)N[C@@H](CCC(N)=O)C(=O)NC(C)(C)C(=O)N1C[C@H](O)C[C@H]1C(=O)NC(C)(C)C(=O)N1CCC[C@H]1C(=O)N[C@H](CO)Cc1ccccc1` (Ac-W[Aib]Q[Aib]G[Aib]A[Aib][Aib]GQ[Aib][Hyp][Aib]P[Phe(ol)]), the MIC in assay [1], in [4], in assay [5], in [6], in assay [7] and in [8] was more than 128 µg/mL throughout. Also, the minimal inhibitory concentration (MIC) in [9], in assay [10] and in assay [11] was more than 128 µg/mL throughout. The IC50 in [2] and in [3] was not below 50000 nM in each case.

As for `CN[C@H](CC(C)C)C(=O)N[C@H]1C(=O)N[C@@H](CC(N)=O)C(=O)N[C@H]2C(=O)N[C@H]3C(=O)N[C@H](C(=O)N[C@H](C(=O)O)c4cc(O)cc(O)c4-c4cc3ccc4O)[C@H](O)c3ccc(c(Cl)c3)Oc3cc2cc(c3O[C@@H]2O[C@H](CO)[C@@H](O)[C@H](O)[C@H]2O[C@H]2C[C@](C)(N)[C@H](O)[C@H](C)O2)Oc2ccc(cc2Cl)[C@H]1O` [VANCOMYCIN], the MIC was more than 128 µg/mL in assay [4], more than 128 µg/mL in assay [6], 16 µg/mL (≈ 11 µM) in assay [10] and 0.125 µg/mL (≈ 0.0863 µM) in [11].

Take `CC[C@@](C)(NC(=O)[C@H](CCC(N)=O)NC(=O)C(C)(C)NC(=O)[C@H](Cc1c[nH]c2ccccc12)NC(C)=O)C(=O)NCC(=O)NC(C)(C)C(=O)N[C@@H](C)C(=O)NC(C)(C)C(=O)NC(C)(C)C(=O)NCC(=O)N[C@@H](CCC(N)=O)C(=O)NC(C)(C)C(=O)N1C[C@H](O)C[C@H]1C(=O)NC(C)(C)C(=O)N1CCC[C@H]1C(=O)N[C@H](CO)Cc1ccccc1`: the minimum inhibitory concentration (MIC) in assay [1] is 64 µg/mL (≈ 39 µM); in assay [4], more than 128 µg/mL; in assay [5], more than 128 µg/mL; in assay [6] it was more than 128 µg/mL; in assay [7], more than 128 µg/mL; in assay [8] it was more than 128 µg/mL. For the same compound, the minimum inhibitory concentration (MIC) in assay [9] was more than 128 µg/mL; in [10] it was more than 128 µg/mL; in assay [11] it was 64 µg/mL (≈ 39 µM). Also, the IC50 in assay [2] and in assay [3] was not below 50000 nM in each case.

`CC(/C=C/[C@@]1(C)[C@H](C)CC[C@@H](O)[C@@H]1C)=C\Cc1c(O)c(Cl)c(C)c(C=O)c1O`: the MIC was more than 128 µg/mL in [1]; more than 128 µg/mL in assay [4]; 16 µg/mL (≈ 39.3 µM) in assay [5]; more than 128 µg/mL in [6]; more than 128 µg/mL in [7]; 16 µg/mL (≈ 39.3 µM) in [8]. The results for the MIC in assay [9], in assay [10] and in [11] were more than 128 µg/mL, more than 128 µg/mL and 32 µg/mL (≈ 78.6 µM), respectively. For the same compound, the IC50 in assay [2] and in assay [3] was 900 nM throughout.

Turning to `C/C(=C\Cc1c(O)c(Cl)c(C)c(C=O)c1O)[C@H](O)C[C@@]1(C)[C@H](C)CCC(=O)[C@@H]1C`, the MIC in [1] is more than 128 µg/mL; in assay [4], more than 128 µg/mL; in assay [5] it was more than 128 µg/mL; in assay [6], more than 128 µg/mL; in assay [7], more than 128 µg/mL; in assay [8], 128 µg/mL (≈ 303 µM). Also, the MIC in assay [9], in assay [10] and in assay [11] was more than 128 µg/mL throughout. In addition, the IC50 in assay [2] and in assay [3] was 900 nM each time.

Regarding NYSTATIN, the MIC in assay [1] is more than 128 µg/mL.

For the compound `CC[C@@](C)(NC(=O)[C@H](CCC(N)=O)NC(=O)CNC(=O)C(C)(C)NC(=O)C(C)(C)NC(=O)[C@H](C)NC(=O)C(C)(C)NC(=O)CNC(=O)C(C)(C)NC(=O)[C@H](CCC(N)=O)NC(=O)C(C)(C)NC(=O)[C@H](Cc1c[nH]c2ccccc12)NC(C)=O)C(=O)N1C[C@H](O)C[C@H]1C(=O)NC(C)(C)C(=O)N1CCC[C@H]1C(=O)N[C@H](CO)Cc1ccccc1`, the MIC in [1] was 64 µg/mL (≈ 39 µM); in assay [4], more than 128 µg/mL; in assay [5], more than 128 µg/mL; in assay [6] it was more than 128 µg/mL; in assay [7] it was 128 µg/mL (≈ 78 µM); in assay [8], 128 µg/mL (≈ 78 µM). Moreover, the MIC in assay [9] was 128 µg/mL (≈ 78 µM); in assay [10] it was more than 128 µg/mL; in [11], 32 µg/mL (≈ 19.5 µM). The IC50 in [2] and in [3] was not below 50000 nM each time.

Consider `CC(/C=C/[C@@]1(C)[C@H](C)CCC(=O)[C@@H]1C)=C\Cc1c(O)c(Cl)c(C)c(C=O)c1O` [ASCOCHLORIN], for which the MIC in assay [1] was 4 µg/mL (≈ 9.88 µM); in assay [4], more than 128 µg/mL; in assay [5], 0.25 µg/mL (≈ 0.617 µM); in assay [6], more than 128 µg/mL; in assay [7], more than 128 µg/mL; in assay [8], 1 µg/mL (≈ 2.47 µM). Besides, the MIC in assay [9] was 16 µg/mL (≈ 39.5 µM); in assay [10], more than 128 µg/mL; in assay [11], 2 µg/mL (≈ 4.94 µM). The IC50 in assay [2] and in assay [3] was 900 nM throughout.

As for `C/C(=C\Cc1c(O)c(Cl)c(C)c(C=O)c1O)CC/C=C(\C)[C@@H]1CC(=O)C(C)(C)O1` [ASCOFURANONE], the MIC is 32 µg/mL (≈ 76 µM) in assay [1]; more than 128 µg/mL in assay [4]; 4 µg/mL (≈ 9.5 µM) in assay [5]; more than 128 µg/mL in [6]; 32 µg/mL (≈ 76 µM) in assay [7]; 4 µg/mL (≈ 9.5 µM) in assay [8]. Further, the MIC in assay [9] is 16 µg/mL (≈ 38 µM); in assay [10] it was more than 128 µg/mL; in assay [11], 16 µg/mL (≈ 38 µM). Further, the IC50 in assay [2] and in assay [3] was 900 nM each time.

As for COLISTIN, the MIC in assay [4] was determined as 1 µg/mL; in assay [5], 16 µg/mL; in [6], 1 µg/mL; in [7], 128 µg/mL; in [8], 64 µg/mL; in assay [9], 128 µg/mL. Besides, the MIC in assay [10] is more than 128 µg/mL; in assay [11], 16 µg/mL.

With `CC[C@@](C)(NC(=O)[C@H](CCC(N)=O)NC(=O)C(C)(C)NC(=O)[C@H](Cc1c[nH]c2ccccc12)NC(C)=O)C(=O)NCC(=O)NC(C)(C)C(=O)N[C@@H](C)C(=O)NC(C)(C)C(=O)NC(C)(C)C(=O)NCC(=O)N[C@@H](CCC(N)=O)C(=O)N[C@](C)(CC)C(=O)N1C[C@H](O)C[C@H]1C(=O)NC(C)(C)C(=O)N1CCC[C@H]1C(=O)N[C@H](CO)Cc1ccccc1`, the MIC in assay [1] was 32 µg/mL (≈ 19.3 µM); in [4] it was more than 128 µg/mL; in [5], more than 128 µg/mL; in [6], more than 128 µg/mL; in assay [7] it was 64 µg/mL (≈ 38.7 µM); in assay [8], 64 µg/mL (≈ 38.7 µM). Further, the MIC in [9] was 64 µg/mL (≈ 38.7 µM); in assay [10], more than 128 µg/mL; in assay [11] it was 16 µg/mL (≈ 9.67 µM). Besides, the IC50 in assay [2] and in [3] was not below 50000 nM throughout.

Turning to `CC[C@@](C)(NC(=O)CNC(=O)[C@@](C)(CC)NC(=O)[C@H](CCC(N)=O)NC(=O)C(C)(C)NC(=O)[C@H](Cc1c[nH]c2ccccc12)NC(C)=O)C(=O)N[C@@H](C)C(=O)NC(C)(C)C(=O)NC(C)(C)C(=O)NCC(=O)N[C@@H](CCC(N)=O)C(=O)N[C@](C)(CC)C(=O)N1C[C@H](O)C[C@H]1C(=O)NC(C)(C)C(=O)N1CCC[C@H]1C(=O)N[C@H](CO)Cc1ccccc1`, the MIC in assay [1] is 16 µg/mL (≈ 9.59 µM); in assay [4] it was more than 128 µg/mL; in [5], more than 128 µg/mL; in assay [6], more than 128 µg/mL; in [7] it was 64 µg/mL (≈ 38.3 µM); in [8] it was 64 µg/mL (≈ 38.3 µM). For the same compound, the MIC in [9] was 32 µg/mL (≈ 19.2 µM); in assay [10], more than 128 µg/mL; in [11], 16 µg/mL (≈ 9.59 µM). For the same compound, the IC50 in [2] and in assay [3] was not below 50000 nM each time.

`CC[C@@](C)(NC(=O)CNC(=O)[C@@](C)(CC)NC(=O)[C@H](CCC(N)=O)NC(=O)C(C)(C)NC(=O)[C@H](Cc1c[nH]c2ccccc12)NC(C)=O)C(=O)N[C@@H](C)C(=O)NC(C)(C)C(=O)NC(C)(C)C(=O)NCC(=O)N[C@@H](CCC(N)=O)C(=O)NC(C)(C)C(=O)N1C[C@H](O)C[C@@H]1C(=O)NC(C)(C)C(=O)N1CCC[C@H]1C(=O)N[C@H](CO)Cc1ccccc1`: the MIC in [1] is 64 µg/mL (≈ 38.7 µM); in [4], more than 128 µg/mL; in assay [5], more than 128 µg/mL; in assay [6], more than 128 µg/mL; in assay [7] it was more than 128 µg/mL; in [8], more than 128 µg/mL. For the same compound, the MIC in assay [9], in assay [10] and in assay [11] was more than 128 µg/mL in each case. Moreover, the IC50 in assay [2] and in assay [3] was not below 50000 nM throughout.
